One substance from paper PMC2673211, “Nitric oxide activates ATP-sensitive potassium channels in mammalian sensory neurons: action by direct S-nitrosylation” (Molecular Pain, 2009) can be followed below.

A value given as a limit tells only on which side of the number the result lay.

Assay [1] has as its target T1, KATP channels in large DRG neurons (Rattus norvegicus, UniProt P70673+Q09429).
T1 construct: native KATP channels in large DRG neurons; endogenous in cells; host or cells: acutely dissociated large-diameter neurons from rat L4/L5 dorsal root ganglia (sham-operated or spinal nerve ligated animals)
The assay is described as follows: Cell-attached single-channel patch-clamp recording of KATP channel activity (NPo). The assay is classed as cell-based. The conditions noted are these: for NPo steady-state value 10 minutes after application of SNAP: SNAP 100 μM, n = 7. The text has this:
We harvested control (L4 and L5) or axotomized (L5) ganglia, from control (SS) or hyperalgesic rats (SNL) respectively, between the 17th and 28th postoperative days. We sacrificed animals by decapitation under deep isoflurane anesthesia, excised ganglia through a lumbar incision, and at the same time confirmed accuracy of initial surgery.
For patch-clamp recordings, we placed excised DRG into separate 35 mm Petri dishes containing cold, oxygenated, Hanks Balanced Salt Solution (Gibko, Invitrogen, Grand Islan, NY), and minced them with iris scissors. We dissociated ganglia enzymatically in a solution containing 0.25 ml 0.05% w:v liberase blendzyme 2 (Roche Diagnostics Corp., Indianapolis, IN) and 0.25 ml DMEM/F12 with glutaMAX (Dulbecco's modified Eagle's medium F12; Gibco, Invitrogen Corp., Carlsbad, CA) in an incubator at 37°C for 30 min. […] Finally, we plated cells onto poly-l-lysine-coated 12-mm glass coverslips (Deutsche Spiegelglas; Carolina Biologic Supply, Burlington, NC), kept them in a humidified incubator at 37°C with 95% air and 5% CO2, and studied them within 3–8 h of dissociation.
We visualized plated neurons using an inverted Nikon Diaphot 300 microscope with Hoffman modulation optic system. […] Large neuronal somata, roughly correspond to large, myelinated Aβ fibers.
(§1) We recorded current passing through single channels in inside-out or cell-attached patch configurations. In cell-attached patches, both bath and pipette (extracellular) solutions were composed of the following: 140 mM KCl, 10 mM HEPES, 5.5 mM dextrose, and 1 mM EGTA. In inside-out patches, the bath (intracellular) solution contained 140 mM KCl, 1.2 mM MgCl2, 10 mM HEPES, 1.5 mM EGTA and 5.5 mM dextrose. The pipette (extracellular) solution was of the same composition as that used in cell-attached recordings. The pH of all solutions was adjusted to 7.4 with KOH. Osmolality was adjusted approximately to 300 mOsm/l by adding sucrose if necessary. We pulled patch micropipettes from borosilicate glass capillaries using a Flaming/Brown micropipette puller, model P-97 (Sutter, San Rafael, CA) and flame polished them with a microforge polisher (Narishige, Tokyo, Japan) prior to use. Their resistance ranged between 3 and 6 MΩ when filled with the internal solution, and placed into the recording solutions.
Sampling frequency of single-channel data was 5 KHz with a low-pass filter (1 KHz). […] We applied a conventional 50% current amplitude threshold level criterion to determine open events. Channel open probability (Po) was determined from the ratios of the area under the peaks in the amplitude histograms fitted by a Gaussian distribution. We calculated channel activity as NPo (where N is the number of observed channels in the patch) from data samples of either 30 s (in inside-out recordings), or 60 s (in cell-attached recordings), in the steady state. In inside-out recordings, NPo of the KATP channels was normalized to the baseline NPo value obtained before test drugs at bathing solution without ATP (indicating relative channel activity).

Assay [2] deals with T2, wild-type SUR1/Kir6.2 channels (Rattus norvegicus, UniProt P70673+Q09429).
T2 construct: A full-length Kir cDNA and a full-length SUR cDNA were subcloned into the mammalian expression vector; expressed in transfected cells; host or cells: COS7 cells (KATP channel-deficient), pcDNA3.1(-) vectors, GFP cDNA co-transfected as a separate reporter
T2 sequence (Q09429 whole entry): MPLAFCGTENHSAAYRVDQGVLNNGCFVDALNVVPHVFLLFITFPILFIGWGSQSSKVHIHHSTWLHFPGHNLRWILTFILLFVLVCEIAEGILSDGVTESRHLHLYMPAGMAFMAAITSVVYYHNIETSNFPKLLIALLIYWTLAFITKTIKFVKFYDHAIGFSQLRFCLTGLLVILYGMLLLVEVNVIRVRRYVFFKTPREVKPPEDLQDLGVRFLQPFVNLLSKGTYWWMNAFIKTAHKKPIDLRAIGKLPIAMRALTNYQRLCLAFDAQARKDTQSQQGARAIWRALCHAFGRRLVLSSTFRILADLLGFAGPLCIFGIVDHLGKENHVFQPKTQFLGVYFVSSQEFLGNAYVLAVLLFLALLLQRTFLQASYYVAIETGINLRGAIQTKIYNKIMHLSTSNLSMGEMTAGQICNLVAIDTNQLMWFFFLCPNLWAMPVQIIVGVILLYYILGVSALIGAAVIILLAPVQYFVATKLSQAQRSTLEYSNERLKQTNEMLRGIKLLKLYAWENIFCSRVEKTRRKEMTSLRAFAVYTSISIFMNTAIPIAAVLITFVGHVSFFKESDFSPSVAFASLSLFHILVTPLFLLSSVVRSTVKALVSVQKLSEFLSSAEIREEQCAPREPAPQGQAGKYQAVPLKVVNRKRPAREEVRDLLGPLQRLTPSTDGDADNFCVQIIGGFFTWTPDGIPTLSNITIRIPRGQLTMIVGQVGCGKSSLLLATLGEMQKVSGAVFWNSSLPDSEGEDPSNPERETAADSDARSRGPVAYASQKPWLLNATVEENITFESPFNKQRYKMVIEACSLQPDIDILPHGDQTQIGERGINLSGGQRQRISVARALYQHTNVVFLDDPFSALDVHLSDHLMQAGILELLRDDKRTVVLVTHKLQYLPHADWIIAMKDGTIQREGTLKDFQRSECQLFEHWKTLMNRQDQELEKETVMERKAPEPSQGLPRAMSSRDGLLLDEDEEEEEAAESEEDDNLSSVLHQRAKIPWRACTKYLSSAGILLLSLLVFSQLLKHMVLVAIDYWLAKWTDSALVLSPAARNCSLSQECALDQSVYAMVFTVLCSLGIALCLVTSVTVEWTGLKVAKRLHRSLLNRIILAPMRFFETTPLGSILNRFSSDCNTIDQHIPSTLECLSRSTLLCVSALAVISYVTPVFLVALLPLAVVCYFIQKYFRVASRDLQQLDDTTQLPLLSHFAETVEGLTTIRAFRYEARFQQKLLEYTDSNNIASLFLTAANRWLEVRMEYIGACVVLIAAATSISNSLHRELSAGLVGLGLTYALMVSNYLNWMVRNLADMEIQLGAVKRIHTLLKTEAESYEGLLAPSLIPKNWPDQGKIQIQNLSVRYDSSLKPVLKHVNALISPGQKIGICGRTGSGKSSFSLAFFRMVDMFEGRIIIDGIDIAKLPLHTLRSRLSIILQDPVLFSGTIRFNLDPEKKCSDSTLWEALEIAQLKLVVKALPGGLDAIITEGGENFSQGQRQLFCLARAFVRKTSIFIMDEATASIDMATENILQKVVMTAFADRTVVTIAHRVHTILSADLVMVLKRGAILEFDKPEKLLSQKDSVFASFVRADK
T2 sequence (P70673 whole entry): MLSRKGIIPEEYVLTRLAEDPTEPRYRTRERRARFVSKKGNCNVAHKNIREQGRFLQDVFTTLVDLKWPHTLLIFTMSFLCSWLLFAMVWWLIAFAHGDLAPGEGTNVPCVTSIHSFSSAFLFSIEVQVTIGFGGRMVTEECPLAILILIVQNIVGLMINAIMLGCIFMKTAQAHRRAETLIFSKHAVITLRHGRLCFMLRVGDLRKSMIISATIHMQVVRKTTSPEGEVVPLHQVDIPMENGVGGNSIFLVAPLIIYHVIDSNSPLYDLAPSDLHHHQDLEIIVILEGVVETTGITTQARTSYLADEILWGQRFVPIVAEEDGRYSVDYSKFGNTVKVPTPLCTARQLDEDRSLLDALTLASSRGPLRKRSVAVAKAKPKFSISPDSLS
The assay can be described thus: Inside-out patch recording of recombinant wild-type channels expressed in COS7 cells. It is filed as biochemical. Particulars: SNAP 1 mM in the presence of 1 mM [ATP]i; n = 7. The protocol:
KATP channel-deficient COS7 cells were plated at a density of 3 × 10^5/dish (35 mm in diameter) and cultured in Dulbecco's modified Eagle's medium supplemented with 10% fetal calf serum. Rat Kir6.2 (GenBank X97041) and rat SUR1 (GenBank X97279) cDNAs were used for expression study. A truncated form of Kir6.2 lacking the last 36 amino acids at the C-terminus was obtained by polymerase chain reaction amplification. Polymerase chain reaction products were cloned into the pCR3.1 vector by using the TA cloning system (Invitrogen Corp., Carlsbad, CA, USA) and then cloned into the pcDNA3.1 (-) vector (Invitrogen Corp.) for mammalian expression. Point mutation of cysteine at position 717 (C717), C806, C1378, C1446, and C1491 within SUR1 to serine (C717S, C806S, C1378S, C1446S, and C1491S) was performed by using the Site-Directed Mutagenesis system (Invitrogen Corp.). All cDNA products were sequenced by using the BigDye terminator cycle sequencing kit and an ABI PRISM 377 DNA sequencer (Applied Biosystems, Foster City, CA) to confirm the sequence. A full-length Kir cDNA and a full-length SUR cDNA were subcloned into the mammalian expression vector pcDNA3.1 (-). For electrophysiological recordings, either wild-type or mutated pcDNA3.1 (-) Kir6.2 alone (1 μg), or pcDNA3.1 (-) Kir6.2 (1 μg) plus pcDNA3.1 (-) SUR1 (3 μg) were transfected into COS7 cells with green fluorescent protein cDNA as a reporter gene by using lipofectamine and Opti-MEN 1 reagents (Life Technologies Inc., Rockville, MD) according to the manufacturer's instructions. After transfection, cells were cultured at 37°C with 95% air and 5% CO2 for 48–72 h before being subjected to electrophysiological recordings.
as §1
We recorded single channel currents at room temperature (20–25°C) using an Axon CNS Multiclamp 700B amplifier, digitized them using an analog-to-digital converter (Axon CNS DigiData 1440A; Axon Instruments, Foster, CA), and stored them into a PC. Sampling frequency of single-channel data was 5 KHz with a low-pass filter (1 KHz). We used pClamp version 10.2 software (Axon Instruments) for data acquisition and analysis. […] Channel open probability (Po) was determined from the ratios of the area under the peaks in the amplitude histograms fitted by a Gaussian distribution. We calculated channel activity as NPo (where N is the number of observed channels in the patch) from data samples of either 30 s (in inside-out recordings), or 60 s (in cell-attached recordings), in the steady state. […]

T1 sequence (Q09429 whole entry): as the sequence (Q09429 whole entry) above
T1 sequence (P70673 whole entry): as the sequence (P70673 whole entry) above

With S-nitroso-N-acetylpenicillamine [SNAP], the “washout period after which effects were reversible” value in assay [1] (SNAP, data not shown) was 2 to 5 min. Further, the entries for the “NPo steady-state value 10 minutes after application of SNAP” value in assay [1] (SNL neurons) and in assay [1] (SS neurons) were 0.31 ± 0.09 and 0.27 ± 0.07, respectively. In addition, the “concentration at which KATP channel activation reaches a saturating plateau” value in assay [1] (SS and SNL neurons) was not below 100 µM. The “effect on recombinant channel activity” value in assay [2] is reported as “significantly activated”.
